Measurements: article PMC8886686 (Journal of Inorganic Biochemistry, 2022)

Legend:
SARS-CoV-2 PLpro [1] = target: T1, SARS-CoV-2 PLpro (Severe acute respiratory syndrome coronavirus 2, UniProt P0DTD1); type: biochemical; details: 1 μM PLpro
SARS-CoV-2 3CLpro [2] = target: T2, SARS-CoV-2 3CLpro (Severe acute respiratory syndrome coronavirus 2, UniProt P0DTD1); type: biochemical
SARS-CoV-2 PLpro [3] = target: T1, SARS-CoV-2 PLpro; type: binding; details: 50 μM metal ion
SARS-CoV-2 3CLpro [4] = target: T2, SARS-CoV-2 3CLpro; type: binding; details: 50 μM metal ion
SARS-CoV-2 WT-PLpro = SARS-CoV-2 WT-PLpro (Severe acute respiratory syndrome coronavirus 2, UniProt P0DTD1); experiment: Zn2+ content determination by ICP-MS, PLpro; type: binding
SARS-CoV-2 WT-3CLpro = SARS-CoV-2 WT-3CLpro (Severe acute respiratory syndrome coronavirus 2, UniProt P0DTD1); experiment: Zn2+ content determination by ICP-MS, 3CLpro; type: binding
SARS-CoV-2 PLpro [5] = target: T1, SARS-CoV-2 PLpro; type: binding
SARS-CoV-2 3CLpro [6] = target: T2, SARS-CoV-2 3CLpro; type: binding
SARS-CoV-2 PLpro [7] = target: T1, SARS-CoV-2 PLpro; experiment: PLpro deubiquitination assay with ubiquitin-AMC substrate; type: biochemical

O=C([O-])[C@H](O)[C@@H](O)[C@H](O)[C@H](O)CO.O=C([O-])[C@H](O)[C@@H](O)[C@H](O)[C@H](O)CO.[Zn+2] [Zn^2+, zinc gluconate] was tested, and the “inhibition of the proteolytic activity of PLpro” value (SARS-CoV-2 PLpro [1]; 50 μM metal ion) was 98%, the IC50 (SARS-CoV-2 PLpro [1]; read-out: IC50, PLpro activity, 20 μM peptide substrate) was 530 ± 40 nM and the “inhibition of the proteolytic activity of 3CLpro” value (SARS-CoV-2 3CLpro [2]; 50 μM metal ion, 0.5 μM 3CLpro) was 97.6%. For the same molecule, the IC50 (SARS-CoV-2 3CLpro [2]; read-out: IC50, 3CLpro activity, 0.5 μM WT-3CLpro, 10 μM substrate) was 540 ± 40 nM, the “effect on melting temperature of PLpro” value (SARS-CoV-2 PLpro [3]) was “most potent metal ion to decrease the melting temperatures” and the “effect on melting temperature of 3CLpro” value (SARS-CoV-2 3CLpro [4]) was “most potent metal ion to decrease the melting temperatures”. For the same molecule, the “Zn2+ binding capacity per PLpro monomer (ICP-MS)” value (SARS-CoV-2 WT-PLpro) was 1.90 ± 0.01 eq, the “Zn2+ binding capacity of 3CLpro monomer (ICP-MS)” value (SARS-CoV-2 WT-3CLpro) was 1.24 ± 0.01 eq and the “Zn2+ bound to PLpro (ITC stoichiometry)” value (SARS-CoV-2 PLpro [5]) was 1.23 ± 0.01 eq. The Kd (SARS-CoV-2 PLpro [5]; read-out: dissociation constant (KD), PLpro) was 2170 ± 360 nM, the “Zn2+ bound to 3CLpro monomer (ITC stoichiometry)” value (SARS-CoV-2 3CLpro [6]) was 0.79 ± 0.01 eq and the Kd (SARS-CoV-2 3CLpro [6]; read-out: dissociation constant (KD), 3CLpro (monomer)) was 4.08 ± 0.66 µM. For the same molecule, the “inhibition of PLpro deubiquitination activity” value (SARS-CoV-2 PLpro [7]) was 95.7%.
